Data set [1] has as its target T1, FBD35 (PfFKBP35 binding domain) (Plasmodium falciparum, UniProt Q8I4V8).
T1 construct: FKBP35 Q5 -A128; 6His-SUMO (N, cleaved yes); made in house; host or cells: E. coli BL21 DE3
Nature of the data set: Fluorescence polarization competition, FBD35.

A further data set addresses T2, FKBP12 (Homo sapiens, UniProt P62942).
T2 construct: 6His-SUMO (N, cleaved yes); made in house; host or cells: E. coli (identical protocol to FBD35, BL21 DE3)
The experiment in a line: Differential scanning calorimetry, FKBP12. Format: binding. As to conditions: compound 40 µM. A general note: DSC measures the heat that a sample takes up or gives off during a temperature scan.

Data set [2] has as its system NF54 P. falciparum parasites. The experiment in a line: P. falciparum strain NF54 growth-inhibition assay. Format: cell-based. To be noted: Plasmodium falciparum; luciferase reporter NF54 line, 72 h. As to the method: Figure 6 P. falciparum strain NF54 growth-inhibition assay. […] Proliferation was measured by luminescence after a complete life-cycle and normalized to DMSO (100%) and chloroquine (100 nM, 0%). (B) Structural differences between synthetic ligands and compound IC50s (μM).
Substrate and Extracellular NanoLuc® Inhibitor (Promega, cat. N2160) were diluted at 1:166 and 1:500, respectively, in Opti -MEM I Reduced Serum Media. 25 µL of this solution was added to each well and plate was read immediately using an EnVision Multimode Plate Reader (PerkinElmer). The BRET ratio was calculated using the following formula:
BRET ratio = acceptorsample – acceptorno tracer control donorsample donorno tracer control
NanoBRET Target Engagement Assay (384-well)
HEK293T cells stably expressing either nLuc-FKBP12 or nLuc-FKBP35 were plated at 0.2×10^6 cells/mL in white, clear -bottom 384-well plates (Sigma Aldrich) in Opti -MEM I Reduced Serum Media (ThermoFisher Scientific) using a Mutidrop Combi Reagent Dispenser (ThermoFisher Scientific). Cells were incubated overnight at 37 °C, 5% CO 2. Using a Tecan D300e, the Rap-Gly-BDP tracer was added to cells to 1 µM. Plates were shaken at 700 RPM on an orbital plate shaker and incubated at 37 °C, 5% CO 2 for 10 minutes. Test compounds were added at the indicated concentrations using a Tecan D300e. Plates were shaken at 700 RPM on an orbital plate shaker and incubated at 37 °C, 5% CO 2 for 2 hours. NanoBRET Nano -Glo Substrate and Extracellular NanoLuc® Inhibitor (Promega, cat. N2160) were diluted at 1:166 and 1:500, respectively, in Opti-MEM I Reduced Serum Media. 10 µL of this solution was added to each well and plate was read immediately using an EnVision Multimode Plate Reader (PerkinElmer). The BRET ratio was calculated using the above formula.
Parasite Culture and Inhibition
NF54 P. falciparum parasites constitutively expressing Renilla luciferase (RLuc) and Blasticidin-S deaminase under the PfHsp86 5’ and PfHRP2 3‘ regulatory sequences integrated in the cg6 chromosomal locus 4 were maintained continuous ly in media consisting of human erythrocytes at 2% haematocrit (O+) resuspended in RPMI 1640 (Gibco® 31800022) supplemented with 5% Albumax (Gibco® 11021045; complete medium) and 2.5 µg/mL of Blasticidin (RPI Corp B12150-0.1) in a gas mixture consisting of 5% CO2, 1% O2, and 94% N2 at 37 °C (Trager and Jensen 2005).
Parasitemia was determined every 48 h through microscopic examination of thin blood smears fixed in methanol, stained with 10% Giemsa solution, and sub-cultured to 0.5-1% parasitaemia.
Compound susceptibility assays
(§1) In 96-well round-bottom plates, sorbitol -synchronized cultures of ring-stage NF54 P. falciparum parasites were established in triplicate and treated with varying concentrations of the inhibitors (25-0.0038 μM) serially diluted in complete medium. Parasite proliferation rates were analyzed after 72 h using the Renilla-Glo Luciferase Assay, and luminescence was measured using the GloMax® Discover Microplate Reader. EC 50 values were obtained from corrected dose-response curves using GraphPad Prism (version 5; GraphPad Software). Data represent the mean % luminescence relative to 5% DMSO-treated (vehicle, 100% growth) and 100 nM chloroquine-treated (no growth) controls.
(§2) In black, clear-bottom 96-well plates (No. 3904 Corning Life Sciences), HEK293T cells were plated at 2x10^5 cells/mL in DMEM high glucose, pyruvate media (ThermoFisher Scientific, cat. 11995073) supplemented with 10% FBS and 1% pen -strep (100 μL final volume). Cells were incubated overnight at 37°C, 5% CO2. Using a Tecan D300e digital dispenser, cells were dosed in triplicate […]
concentration, 100 mM stock in DMSO) and Carfilzomib (10 µM to 4.6 nM final concentration, 10 mM stock in DMSO) normalizing DMSO to 0.25%. Cells were then incubated at 37 °C, 5% CO2 for 72 hours. Following incubation, cells were treated with 70 µL CellTiter-Glo® Luminescent Cell […]
In general terms: A reporter such as luciferase makes a cellular process visible.

The nature of data set [3]: Plasma stability assay, human. As to conditions: percent remaining, 1 µM, 37 °C, 5 hours. The data set is classed as in vitro ADME. As to the method:
as §1, §2
(§3) concentration, 100 mM stock in DMSO) and Carfilzomib (10 µM to 4.6 nM final concentration, 10 mM stock in DMSO) normalizing DMSO to 0.25%. Cells were then incubated at 37 °C, 5% CO2 for 72 hours. Following incubation, cells were treated with 70 µL CellTiter-Glo® Luminescent Cell Viability Assay Reagent (Promega, cat. G7570) and incubated in the dark at room temperature for 30 minutes. Plates were read using an EnVision Multimode Plate Reader (PerkinElmer). Cell viability data was normalized to DMSO controls and analyzed in GraphPad Prism 8 by fitting the data to “[Inhibitor] vs. normalized response – variable slope” model to obtain the curves.
(§4) Each compound was prepared in duplicate at 1 µM final concentration (0.2% DMSO) in human or mouse plasma (Aldrich). Samples were incubated at 37 °C for 5 hours with mixing at 350 rpm on an orbital shaker. Aliquots of each sample were taken at time zero and following 5 hours. Each sample was quenched by adding acetonitrile in a 3:1 ratio and further diluting with 50 µl of PBS.
(§5) After quenching, samples were centrifuged to pellet precipitated partic ulates and an aliquot of supernatant was diluted 1:1 with water. The resulting solution was analyzed by UPLC -MS/MS with compounds detected by MRM detection on a triple quadrupole mass spectrometer. The ratio of compound peak areas at 0 and 5 hours were use d to calculate the percent remaining.

A short description of data set [4]: Plasma stability assay, mouse. Format: in vitro ADME. As to conditions: percent remaining, 1 µM, 37 °C, 5 hours. As to the method: as §1, §2, §3, §4, §5
The nature of the next data set: PBS solubility. As to conditions: pH 7.4.

Each structure is given as a SMILES string. Values after ≈ are worked out from the molar mass of the structure shown.

T1 sequence (Q8I4V8 5-128): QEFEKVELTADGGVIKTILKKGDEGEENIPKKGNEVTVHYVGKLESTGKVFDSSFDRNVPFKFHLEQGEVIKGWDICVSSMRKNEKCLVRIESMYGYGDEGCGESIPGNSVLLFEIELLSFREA
T2 sequence (P62942 whole entry): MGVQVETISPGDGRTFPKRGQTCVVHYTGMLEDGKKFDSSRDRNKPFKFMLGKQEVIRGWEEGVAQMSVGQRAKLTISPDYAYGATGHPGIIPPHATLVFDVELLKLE

For the molecule `C=CC(=O)Nc1cccc([C@@H](CCc2ccc(OC)c(OC)c2)OC(=O)[C@@H]2CCCCN2C(=O)C(=O)C(C)(C)CC)c1` [1a], the IC50 (in general, the concentration that inhibits the measured activity by half) in data set [1] turned out to be 0.206 µM; in data set [2] it was 1.4 µM. The ΔTm (in general, the shift of the melting midpoint relative to a reference) at 40 µM on FKBP12 worked out at 5.6 °C. The “Plasma Stability (human)” value in data set [3] amounted to 92%. In data set [4], the “Plasma Stability (mouse)” value amounted to 48%. The solubility – broadly, how much of the substance goes into solution per volume – in “PBS solubility” came out at 0.31 µM (≈ 0.179 µg/mL).

In the case of `CCC(=O)Nc1cccc([C@@H](CCc2ccc(OC)c(OC)c2)OC(=O)[C@@H]2CCCCN2C(=O)C(=O)C(C)(C)CC)c1` [1b], the IC50 worked out at 0.076 µM in data set [1] and 1.9 µM in data set [2]. In addition, at FKBP12, the thermal shift (ΔTm) at 40 µM came out at 6.8 °C. Also, the “Plasma Stability (human)” value in data set [3] came out at 90%. In addition, the “Plasma Stability (mouse)” value in data set [4] is reported as 18%.

As for `C=CC(=O)Nc1ccccc1[C@@H](CCc1ccc(OC)c(OC)c1)OC(=O)[C@@H]1CCCCN1C(=O)C(=O)C(C)(C)CC` [1c], the concentration for half-maximal inhibition (IC50) amounted to 2.85 µM in data set [1] and 1.9 µM in data set [2]. Also, the “fold weaker binding by FP” value in data set [1] (acrylamide moved to ortho position, compared with 1a) was more than 10 fold. For the same molecule, at FKBP12, the thermal shift (ΔTm) at 40 µM came to 3.2 °C. In addition, the “Plasma Stability (human)” value in data set [3] is on record as 62%. Further, the “Plasma Stability (mouse)” value in data set [4] amounted to 31%. For the same molecule, in “PBS solubility”, the concentration in solution (solubility) came to 3.5 µM (≈ 2.03 µg/mL).

For `C=CC(=O)OCC(C)(C)C(=O)C(=O)N1CCCC[C@H]1C(=O)O[C@H](CCc1ccc(OC)c(OC)c1)c1ccccc1` [2c], the IC50 in data set [1] is 0.559 µM; in data set [2] it was 13 µM. The thermal shift (ΔTm) at 40 µM at FKBP12 is 5.2 °C. In data set [3], the “Plasma Stability (human)” value came out at 0%. Besides, the “Plasma Stability (mouse)” value in data set [4] came to 0%. Besides, the solubility in the data set “PBS solubility” is less than 0.1 µM.

For the origin of these results see PMC7667655, “Targeted Covalent Inhibition of Plasmodium FK506 Binding Protein 35” (ACS Medicinal Chemistry Letters, 2020).
